Measured values from PubChem BioAssay (NCI).
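Following 48 hours of exposure in 96-well plates, responses at five concentrations were used to interpolate endpoints linearly. GI50: concentration for 50% inhibition of growth. The concentration for full growth arrest is given as TGI.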

Columns and labels:
Experiment in all cases: NCI tumour cell line growth inhibition, 48 h
[1] = test system: MOLT-4 leukemia
[2] = test system: UO-31 renal
[3] = test system: RPMI-8226 leukemia
[4] = test system: TK-10 renal
[5] = test system: LOX IMVI melanoma
[6] = test system: M14 melanoma
[7] = test system: NCI-H460 lung
[8] = test system: OVCAR-3 ovarian
[9] = test system: MDA-N
[10] = test system: MALME-3M melanoma
[11] = test system: RXF 393 renal

Row | SMILES | TGI [1] [µM] | TGI [2] [µM] | TGI [3] [µM] | TGI [4] [µM] | TGI [5] [µM] | TGI [6] [µM] | TGI [7] [µM] | TGI [8] [µM] | TGI [9] [µM] | TGI [10] [µM] | TGI [11] [µM] | GI50 [3] [µM] | GI50 [4] [µM] | GI50 [5] [µM] | GI50 [7] [µM] | GI50 [8] [µM] | GI50 [11] [µM] | GI50 [10] [µM]
1 | COP(=O)(OC)C(N)Cc1c[nH]c2ccccc12 (configuration not stated) | > 100 | > 100 | > 100 | > 100 | > 100 | > 100 | > 100 | > 100 | > 100 | – | – | – | – | – | – | – | – | –
2 | O=C(NC(=S)Nc1ccc(Br)cc1)c1ccc2c(c1)Sc1ccccc1O2 | > 100 | > 100 | – | > 100 | > 100 | > 100 | > 100 | > 100 | > 100 | > 100 | – | – | – | – | – | – | – | –
3 | COc1ccc2c(c1OC)C(=O)C2 | > 100 | > 100 | > 100 | > 100 | > 100 | > 100 | > 100 | – | – | > 100 | > 100 | – | – | – | – | – | – | –
4 | O=C1OC(C(O)CO)C(C(O)CO)OC1=O (configuration not stated) | > 10 | > 10 | > 10 | > 10 | – | > 10 | > 10 | > 10 | – | > 10 | > 10 | – | – | – | – | – | – | –
5 | O=C1C=C(NCCc2ccc(O)c([N+](=O)[O-])c2)C(=O)c2[nH]cnc21 | 38.2 | > 100 | > 100 | > 100 | > 100 | 32.3 | 69.6 | 46.1 | 31.2 | 17.6 | – | – | – | – | – | – | – | –
6 | O=c1c(NCc2ccccc2)c(C2(c3ccccc3F)SCCCS2)c1=O | > 100 | > 100 | – | > 100 | > 100 | > 100 | > 100 | > 100 | > 100 | – | > 100 | – | – | – | – | – | – | –
7 | CC(C)CC1c2[nH]c3ccccc3c2C[C@H]2C(=O)NC(Cc3c[nH]c4ccccc34)C(=O)N12 (some centres not stated) | 39.1 | 42.9 | 48.7 | 24.5 | 31.1 | 29 | – | 30.5 | – | 28 | 22.5 | – | – | – | – | – | – | –
8 | Cc1cccc2c(=O)c3cccc([C@H](C)C(=O)O)c3oc12 | > 100 | > 100 | > 100 | > 100 | > 100 | > 100 | > 100 | > 100 | > 100 | > 100 | – | – | – | – | – | – | – | –
9 | O=C1/C(=C/c2cccc([N+](=O)[O-])c2)N=C(c2ccccc2)N1c1nc2ccc(Sc3ccccc3)cc2[nH]1 | > 100 | > 100 | > 100 | > 100 | > 100 | > 100 | > 100 | – | 33.3 | > 100 | > 100 | – | – | – | – | – | – | –
10 | COc1ccc(C2CC(c3sc(Nc4ccc(C)cc4)nc3C)=NN2)cc1 (configuration not stated) | 32.7 | 29.4 | 41.4 | – | 34.4 | – | 30.3 | 30.1 | – | – | 27.1 | – | – | – | – | – | – | –
11 | O=C(Nc1ccccc1C(=O)NCc1ccccc1)/C(=C/c1ccccc1O)NC(=O)c1ccccc1 | > 100 | > 100 | > 100 | > 100 | > 100 | > 100 | > 100 | > 100 | – | – | > 100 | – | – | – | – | – | – | –
12 | N=c1oc2ccc3ccccc3c2cc1-c1nc2ccccc2c(=O)[nH]1 | > 100 | 32.8 | > 100 | 90.4 | > 100 | > 100 | > 100 | – | > 100 | > 100 | 56.7 | – | – | – | – | – | – | –
13 | CCCCn1c(=O)[nH]c2c(N)ncnc21 | – | > 100 | – | > 100 | > 100 | > 100 | > 100 | > 100 | > 100 | > 100 | > 100 | – | – | – | – | – | – | –
14 | O=C(COc1cc(=O)oc2ccccc12)c1ccccc1 | > 100 | – | > 100 | > 100 | > 100 | > 100 | > 100 | 39.9 | > 100 | > 100 | – | – | – | – | – | – | – | –
15 | Nc1nnc(N)n1N | > 100 | > 100 | > 100 | > 100 | > 100 | > 100 | > 100 | – | – | > 100 | > 100 | – | – | – | – | – | – | –
16 | O=C(CC(C(=O)c1ccsc1)c1cccs1)c1ccccc1 (configuration not stated) | > 100 | 76.3 | > 100 | > 100 | > 100 | > 100 | > 100 | > 100 | > 100 | – | > 100 | – | – | – | – | – | – | –
17 | Cc1cc2ncn(CC(=O)O)c2cc1C | > 100 | > 100 | > 100 | > 100 | > 100 | > 100 | > 100 | > 100 | – | > 100 | > 100 | – | – | – | – | – | – | –

Row | SMILES | TGI [1] [µM] | TGI [2] [µM] | TGI [3] [µM] | TGI [4] [µM] | TGI [5] [µM] | TGI [6] [µM] | TGI [7] [µM] | TGI [8] [µM] | TGI [9] [µM] | TGI [10] [µM] | TGI [11] [µM] | GI50 [3] [µM] | GI50 [4] [µM] | GI50 [5] [µM] | GI50 [7] [µM] | GI50 [8] [µM] | GI50 [11] [µM] | GI50 [10] [µM]
18 | Cc1nc2c(Cl)cc(Cl)cc2c2c1CCO2 | > 100 | > 100 | > 100 | > 100 | > 100 | > 100 | > 100 | – | > 100 | > 100 | > 100 | – | – | – | – | – | – | –
19 | CC1=C[P+](c2ccccc2)(c2ccccc2)c2ccccc2O1 | 21 | > 100 | – | 94.4 | 17.2 | > 100 | > 100 | 9.4 | – | 61 | > 100 | – | – | – | – | – | – | –
20 | NCCCn1c(Cl)nc2ccccc21 | > 100 | > 100 | > 100 | – | > 100 | > 100 | > 100 | > 100 | > 100 | > 100 | > 100 | – | – | – | – | – | – | –
21 | O=C1c2c(c3c4cc(F)ccc4oc3c3[nH]c4ccccc4c23)C(=O)N1O | – | – | 7.31 | 53.4 | 2.15 | – | 10.6 | 7.96 | – | 6.46 | 6.85 | 1.22 | 12 | 0.5 | 0.565 | 2.53 | 1.92 | 1.37
22 | C(=N\NC1=NCCCCN1)/c1ccc2ccccc2c1 | 53.2 | > 100 | 76.1 | > 100 | 29.8 | 28 | 62.9 | > 100 | – | 30.4 | 60.8 | – | – | – | – | – | – | –
23 | CCOC(CBr)OC1C(=O)OCC1(C)C (configuration not stated) | > 100 | > 100 | > 100 | > 100 | > 100 | > 100 | > 100 | – | > 100 | > 100 | > 100 | – | – | – | – | – | – | –
24 | CC(C)(C)OC(=O)NC(CSCc1ccc(C(=O)c2ccccc2)cc1)C(=O)N1CCN(CCCCN2c3ccccc3Sc3cc(N=[N+]=[N-])ccc32)CC1 (configuration not stated) | > 100 | > 100 | – | > 100 | > 100 | > 100 | > 100 | > 100 | > 100 | > 100 | > 100 | – | – | – | – | – | – | –
25 | COc1ccc(C2=C(OC(C)=O)c3cccn3-c3ccc(Cl)cc3S2)cc1 | 7.47 | – | 6.21 | > 10 | > 10 | > 10 | – | – | 4.51 | > 10 | > 10 | – | – | – | – | – | – | –
26 | CCC1(O)C(=O)OCc2c1cc1n(c2=O)Cc2cc3cc4c(cc3nc2-1)OCO4 (configuration not stated) | 0.178 | 0.0512 | 7 | 37.3 | 0.0688 | 0.0632 | 0.0156 | 0.589 | – | 0.807 | 0.0578 | – | – | – | – | – | – | –
27 | COc1ccc(N2C(=O)C3ON(Cc4ccc(CC(N)=O)cc4)C(c4c5ccccc5c(C)c5ccccc45)C3C2=O)cc1 (configuration not stated) | 6.41 | 37.3 | – | 47.8 | > 100 | > 100 | 30.8 | > 100 | > 100 | > 100 | 48.8 | – | – | – | – | – | – | –
28 | N=C1OC(CN2CCN(c3ccccc3)CC2)CN1C(=O)Nc1ccccc1 (configuration not stated) | > 100 | > 100 | > 100 | > 100 | > 100 | > 100 | > 100 | – | > 100 | > 100 | > 100 | – | – | – | – | – | – | –
29 | COc1cc(/C=C/C(=O)CC(=O)/C=C/c2cc(C)c(O)c(OC)c2)cc(C)c1O | > 100 | > 100 | > 100 | – | > 100 | > 100 | > 100 | > 100 | – | > 100 | – | – | – | – | – | – | – | –
30 | Cc1cc(=O)[nH]c2cc(NC(=O)C(C)NC(=O)C(C)NC(=O)C(C)NC(=O)OC(C)(C)C)ccc12 (configuration not stated) | > 15 | > 15 | – | > 15 | > 15 | > 15 | > 15 | – | > 15 | – | > 15 | – | – | – | – | – | – | –
31 | CN(C)CCCNc1ccnc2c([N+](=O)[O-])cccc12 | 66.7 | > 100 | 69.4 | > 100 | 39 | > 100 | 39.2 | > 100 | – | 8.61 | – | – | – | – | – | – | – | –
32 | Nc1cc(C2CCCc3c2[nH]c2ccccc32)ccc1O (configuration not stated) | 91.2 | > 100 | 54.9 | > 100 | 71.2 | > 100 | > 100 | > 100 | – | > 100 | > 100 | – | – | – | – | – | – | –
33 | N=c1oc2cc(O)ccc2cc1C(=O)Nc1ccccn1 | > 100 | – | > 100 | > 100 | > 100 | > 100 | > 100 | > 100 | – | > 100 | 99.7 | – | – | – | – | – | – | –
34 | CN1C/C(=C\c2cccs2)C2=NN(c3ccccc3)C(c3cccs3)C2C1 (configuration not stated) | > 100 | > 100 | > 100 | > 100 | > 100 | > 68.3 | > 100 | > 21.8 | 3.99 | > 51.1 | – | – | – | – | – | – | – | –
